Data as given in patent publication US9017744B2, “Method of using isomaltulose to suppress blood glucose level increase” (Mitsui Sugar Co., Ltd., priority 2002, dated 2015).

Experiments:
[1] = Body fat accumulation in mice fed feeds for 8 weeks (Example 3); format: in vivo, C57BL/6CrSlc(SPF) male mice
From the text: Mice were consecutively fed with a feed added with isomaltulose, a feed added with sucrose and no isomaltulose, and a feed added with both isomaltulose and sucrose to compare their body fat accumulation amount.
C57BL/6CrSlc(SPF) male mice (30 heads) aged 7 weeks were fed with a commercial powder feed (trade name: CRF-1 powder, made by Oriental Yeast Co., LTD) and water ad libitum to prefeed for a week. […] The groups were fed with their respective feeds and water ad libitum for 8 weeks. The feeding condition was as follows: temperature 22±3° C., humidity (relative humidity) 50±20%, ventilation cycles 13-17 times/hr, and lighting time 8:00-20:00 (light 12 hrs, dark 12 hrs).
After the end of the feeding, the mice were light anesthetized with ether and sectioned abdominally to exsanguinate from postcava to death. For a typical example of every group, digital photographs showing body fat accumulation inside the abdominal cavity were taken. Then, for all the cases, the kidney peripheral fat (including the retroperitoneal fat) and the epididymis peripheral fat were taken out to measure their wet weights separately in left and right. The mesenteric fat also was taken out to measure its wet weight. These three kinds of fat tissues are typical of visceral fat. […]

[2] = rats; high fat diet, all sucrose replaced by isomaltulose, compared with sucrose-containing feed; cited from earlier work
[3] = Heat coloring of carbohydrate with glutamic acid (Test Example 1); format: physicochemical; settings: for absorbance at a wavelength of 420 nm: 5 g carbohydrate + 1 g glutamic acid in 50 g
Procedure: 5 g of carbohydrate and 1 g of glutamic acid were dissolved in distilled water to prepare a sample having a total weight of 50 g. […] These samples were filled in 100 ml capped vials and then heated at 100° C. for 50 min. After the heating, samples were cooled and respective absorbances were measured at a wavelength of 420 nm.
Three same kinds of samples were prepared and treated in an autoclave at 121° C. for 20 min, that is, the same level as in retort sterilization for a canned food, and measured the absorbance at a wavelength of 420 nm.

[4] = Crystallization of 50 wt % solutions stored at 5° C. (Test Example 2); format: physicochemical
Procedure: Dissolution was performed until no crystal remained at 50° C. These vials were put in a refrigerator set at 5° C. to observe crystallization.

[5] = monohydrate; at 20° C.; cited from earlier work
[6] = Blood glucose level test after ingesting drinks (Example 1); format: in vivo, human; settings: for blood glucose level increase: FIG. 1
Procedure: Using each of the Comparative drinks as a control sample, a blood glucose level test after ingesting the drink was performed as will be described later. […] Using each of the Example drinks as a test sample, a blood glucose level test after ingesting the drink was performed. The blood glucose level test was as follows: Five healthy volunteers (4 males and 1 female), 31-40 aged, were selected as the test subjects. They took no breakfast on a test day and kept fasting for 12 hrs or more before the start of the test. Their bloods were collected before ingesting a drink (0 min), and 30 min, 60 min, 90 min, and 120 min after ingesting it. As a result their blood glucose levels are determined. One kind of drink was ingested for one test. Another drink was ingested on another day and the test was carried out once a day for total 8 days. The same five test subjects were applied to all the tests for blood glucose levels. In the Example 1, the free style Kissei kit (made by Kissei Pharmaceutical Co., LTD) was used to collect blood samples and test a blood glucose level.

[7] = autoclave at 121° C. for 20 min

| absorbance at a wavelength of 420 nm [3, 7] | absorbance at a wavelength of 420 nm ([3]; heated at 100° C. for 50 min) | visual colour of sample [3, 7] | storage time at which crystallization began ([4]; 50 wt % solution, 100 ml) [days] | amount of crystal ([4]; 50 wt % solution, 100 ml, after 6 days) [g] | crystallization observed ([4]; 50 wt % total sugar solution, during 6 days) | SMILES | ratio of isomaltulose in carbohydrate at which it reduces the accumulation of body fat ([1]; mouse, in vivo) [%] | minimum intake of isomaltulose necessary to reduce a body fat accumulation ([1]; presumed, in terms of a person having a body weight of 60 kg) [g] | body fat accumulation amount [2] | solubility [5] [g in 100 g water] | increase in blood glucose level after consuming the carbohydrates ([6]; 25 g isomaltulose in combination with 25 g sucrose or 25 g glucose) | area under blood glucose level increase curve ([6]; 25 g isomaltulose in combination with 25 g sucrose or 25 g glucose, compared with the Comparative groups) | minimum intake of isomaltulose necessary to reduce an increase in blood glucose level ([6]; in vivo) [g] | blood glucose level increase ([6]; simultaneous ingestion of 25 g isomaltulose and 25 g glucose, compared with 25 g glucose alone) | blood glucose level increase ([6]; simultaneous ingestion of 25 g isomaltulose and 25 g sucrose, compared with 50 g sucrose alone and 25 g sucrose alone) | isomaltulose ratio in total carbohydrate at which the GI value surely decreased ([6]; total carbohydrate weight 50 g, FIG. 4) [%] | blood glucose level 30 minutes after ingesting ([6]; 25 g ingested alone (Comparative example)) | blood glucose level 30 minutes after ingesting ([6]; 50 g ingested alone (Comparative example)) |
| --- | --- | --- | --- | --- | --- | --- | --- | --- | --- | --- | --- | --- | --- | --- | --- | --- | --- | --- |
| 0.322 | 0.004 | clearly deep brown | 2 | 10.77 | – | OC[C@H]1O[C@H](OC[C@H]2OC(O)(CO)[C@@H](O)[C@@H]2O)[C@H](O)[C@@H](O)[C@@H]1O (stereo partly drawn) [isomaltulose, 6-O-alpha-D-Glucopyranosyl-D-fructofuranose] | ≥ 20 | ≥ 10 | lower body fat accumulation amount | 38.4 | no sudden increases | significantly lower values | ≥ 5 | reduced | reduced | ≥ 10 | – | – |
| – | – | clearly light brown | – | – | no crystallization | OC[C@H]1O[C@@](CO)(O[C@H]2O[C@H](CO)[C@@H](O)[C@H](O)[C@H]2O)[C@@H](O)[C@@H]1O [sucrose, reference compound] | – | – | – | – | – | – | – | – | – | – | sudden increase | sudden increase |
